Source: patent US10093694B2, “Compounds for treating eye disorders or diseases” (Guangzhou KangRui Biological Pharmaceutical Technology Co, …, priority 2016, dated 2018)

Experiments:
mouse eyes (cataract) = experiment: Cataract studies: mouse eyes treated with eye drop solution; assay type: in vivo; details: eye drop solution 100 μM, three times a day, 50 μl each time, 6 weeks, versus negative control
Experimental: FIGS. 16A and 16B show the result of mouse eyes treated with an eye drop solution containing Compound 1 at 100 μM concentration three times a day for 50 μl each time for 6 weeks.

mouse lenses (cataract) = experiment: Cataract studies: dissected mouse cataract lenses incubated with compound, scored for clarity; details: incubated with compound at the indicated concentrations for 4 hours at room temperature, PBS negative control showed no lens opacity change
Experimental: (§1) FIGS. 14A and 14B show cataract lenses that have been treated with Compound 1. FIG. 14A show mouse lenses (white) that were dissected from the eye and placed into phosphate buffered saline solution (PBS) overnight at 4° C. Cataract was visible in all lenses. The cataract lenses were incubated with Compound 1 at the indicated concentration for 4 hours at room temperature and then scored for clarity. […] The PBS solution served as negative control and there were no lens opacity change.
as §1, with “15A” for “14A”, “15B” for “14B”, “2.” for “1.”, “2” for “1”

Compound	clarity / cataract of treated eye (mouse eyes (cataract))	lens clarity / cataract after treatment (mouse lenses (cataract))
C[C@H](CCC(Br)C(C)(C)O)[C@H]1CC[C@@]2(C)C3=C(CC[C@]12C)[C@@]1(C)CC[C@H](O)C(C)(C)[C@@H]1CC3 (stereo partly drawn) [Compound 1, (3S,5R,10S,13R,14R,17R)-17-((2R)-5-bromo-6-hydroxy-6-methylheptan-2-yl)-4,4,10,13,14-pentamethyl-2,3,4,5,6,7,10,11,12,13,14,15,16,17-tetradecahydro-1H-cyclopenta[a]phenanthren-3-ol]	increased clarity and reduced cataract	Increased lens clarity and reduced cataract
C[C@H](CCCC(C)(C)O)[C@H]1CC[C@@]2(C)C3=C(CC[C@]12C)[C@@]1(C)CC[C@H](O)C(C)(C)[C@@H]1CC3 [Compound 2, (3S,5R,10S,13R,14R,17R)-17-((R)-6-hydroxy-6-methylheptan-2-yl)-4,4,10,13,14-pentamethyl-2,3,4,5,6,7,10,11,12,13,14,15,16,17-tetradecahydro-1H-cyclopenta[a]phenanthren-3-ol]		Increased lens clarity and reduced cataract
